# According to patent publication US6426355B1, “Heterocyclic carboxamide-containing thiourea inhibitors of herpes viruses containing phenylenediamine group” (American Home Products, priority 1998, dated 2002):
# Tests used:
# [1] = test system: HCMV recombinant mutant virus (RV145); assay: HCMV microtiter plate assay (beta-glucuronidase reporter); assay type: cell-based, Human Cytomegalovirus; details: for IC50 (ug/ml) HCMV: HCMV in human foreskin fibroblasts; for IC50: Human betaherpesvirus 5, Fibroblast, read-out: IC50 (ug/ml) HCMV
# How it was run: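 Replication was read out as virus-encoded β-glucuronidase activity, measured with a chromogenic or fluorogenic glucuronide substrate in cell lysates at 96 h post-infection. Infection of human foreskin fibroblasts with RV145 took place with compound present. IC50 was derived from a range of inhibitor amounts.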
# VZV strain Ellen = assay: VZV Antiviral (ELISA) assay; assay type: cell-based; details: for IC50 (ug/ml) VZV / % inhibition 10 ug/ml VZV: VZV strain Ellen in HFF cells; for % inhibition 10 ug/ml VZV: at 10 ug/ml; for IC50: Human alphaherpesvirus 3, VZV strain Ellen in HFF cells, read-out: IC50 (ug/ml) VZV; for inhibition at 10 µg/mL: Human alphaherpesvirus 3, read-out: % inhibition 10 ug/ml VZV, at 10 ug/ml, VZV strain Ellen in HFF cells
# How it was run: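 Low-MOI (<0.1) Ellen infection of HFF overnight; cell mix plated 3.5×10^4/well with compound, DMEM + 2% FBS, 3 d, 37° C, 5% CO2. Fix, anti-gpII mAb ELISA, MUG substrate, fluorescence. IC50 vs compound-free signal.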
# HSV-1 = assay: HSV Antiviral (ELISA) assay; assay type: cell-based; details: for IC50 (ug/ml) HSV: HSV-1 in Vero cells; for IC50: Human alphaherpesvirus 1, HSV-1 in Vero cells, read-out: IC50 (ug/ml) HSV
# How it was run: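 Replication measured as glycoprotein D signal in fixed cells: anti-gD antibody plus β-galactosidase-linked secondary, fluorogenic substrate read at 365/450 nm. Vero cells (2% FBS DMEM) received compound 30 min pre-infection, HSV-1 MOI 0.006, ~24 h incubation; IC50 relative to no-compound fluorescence.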
SMILES,IC50 (ug/ml) HCMV [1],IC50 (ug/ml) VZV (VZV strain Ellen),% inhibition 10 ug/ml VZV (VZV strain Ellen),IC50 (ug/ml) HSV (HSV-1),IC50 [1],IC50 (VZV strain Ellen),IC50 (HSV-1),inhibition at 10 µg/mL (VZV strain Ellen)
CN(c1ccc(NC(=S)Nc2ccc(NC(=O)c3ccccn3)cc2)cc1Cl)C1CCCCC1 [Example 249],0.4 µg/mL,>10 µg/mL,59%,>10 µg/mL,,,,
"CC(C)c1nc(C(=O)Nc2ccc(NC(=S)Nc3cc(C(F)(F)F)cc(C(F)(F)F)c3)cc2)cs1 [Example 1133, 2-Isopropyl-thiazole-4-carboxylic acid {4-[3-(3,5 bis-trifluoromethyl-phenyl)-thioureido]-phenyl}-amide]",,,,,1.5 µg/mL,> 10 µg/mL,6 µg/mL,
"O=C(Nc1ccc(NC(=S)Nc2cccc(Cl)c2)cc1)c1ccccc1F [Example 994, N-{4-[3-(3-Chloro-phenyl)-thioureido]-phenyl}-2-fluoro-benzamide]",,,,,0.07 µg/mL,> 10 µg/mL,> 10 µg/mL,
O=C(CN1CCCCCC1)Nc1ccc(NC(=S)Nc2ccc(NC(=O)c3ccco3)cc2)cc1Cl [Example 422],0.058 µg/mL,>10 µg/mL,69%,5 µg/mL,,,,
CC(=O)Nc1cccc(NC(=S)Nc2ccc(NC(=O)c3csnn3)cc2)c1 [Example 478],0.4 µg/mL,>10 µg/mL,31%,>10 µg/mL,,,,
COc1cc(OC)c(NC(=S)Nc2ccc(NC(=O)c3ccc(C)s3)cc2)cc1Cl [Example 145],>10 µg/mL,>15 µg/mL,51%,2 µg/mL,,,,
"O=C(Nc1ccc(NC(=S)Nc2ccc(Cl)c(Cl)c2)cc1)c1csnn1 [Example 964, [1,2,3]Thiadiazole-4-carboxylic acid {4-[3-(3,4-dichloro-phenyl)-thioureido]-phenyl}-amide]",,,,,0.03 µg/mL,> 10 µg/mL,> 10 µg/mL,9%
"CC(NC(=S)Nc1ccc(NC(=O)c2cccs2)cc1)c1ccc(F)cc1 (centres unmarked) [Example 1128, Thiophene-2-carboxylic acid (4-{3-[1-(4-fluoro-phenyl)-ethyl]-thioureido}-phenyl)-amide]",,,,,1.3 µg/mL,> 10 µg/mL,> 10 µg/mL,
O=C(CN1CCCC1)Nc1ccc(NC(=S)Nc2ccc(NC(=O)c3ccco3)cc2)cc1Cl [Example 416],0.25 µg/mL,>15 µg/mL,87%,>10 µg/mL,,,,
O=C(Nc1ccc(CNC(=S)Nc2cc(Cl)cc(Cl)c2)cc1)c1csnn1 [Example 635],0.15 µg/mL,4 µg/mL,,>10 µg/mL,,,,
"CC(=O)Nc1ccc(NC(=S)Nc2cc(Cl)ccc2Cl)cc1 [Example 980, N-{4-[3-(2,5-Dichloro-phenyl)-thioureido]-phenyl} -acetamide]",,,,,0.05 µg/mL,,> 10 µg/mL,56%
O=C(Nc1ccc(NC(=S)NCCOc2ccccc2)cc1)c1csnn1 [Example 627],0.014 µg/mL,>10 µg/mL,,10 µg/mL,,,,
Cc1ccc(CCNC(=S)Nc2ccc(NC(=O)c3csnn3)cc2)cc1 [Example 638],0.01 µg/mL,>10 µg/mL,,>10 µg/mL,,,,
"O=C(Nc1ccc(NC(=S)Nc2cccc([N+](=O)[O-])c2)cc1)c1ccccc1F [Example 1009, 2-Fluoro-N-{4-[3-(3-nitro-phenyl)-thioureido]-phenyl} -benzamide]",,,,,0.2 µg/mL,,10 µg/mL,22%
O=C(Nc1ccc(NC(=S)Nc2ccc(OC(F)(F)F)c(Br)c2)cc1)c1csnn1 [Example 550],0.013 µg/mL,>10 µg/mL,,>10 µg/mL,,,,
COc1cc(C)c(Cl)cc1NC(=S)Nc1ccc(NC(=O)c2ccco2)cc1 [Example 353],0.04 µg/mL,7 µg/mL,86%,0.6 µg/mL,,,,
COc1cc(OC)c(NC(=S)Nc2ccc(NC(=O)c3ccc4ccccc4n3)cc2)cc1Cl [Example 159],>10 µg/mL,>10 µg/mL,62%,>10 µg/mL,,,,
CN(C)c1cccc(NC(=S)Nc2ccc(NC(=O)c3ccco3)cc2)c1 [Example 455],0.3 µg/mL,>10 µg/mL,30%,>10 µg/mL,,,,

SMILES,IC50 (ug/ml) HCMV [1],IC50 (ug/ml) VZV (VZV strain Ellen),% inhibition 10 ug/ml VZV (VZV strain Ellen),IC50 (ug/ml) HSV (HSV-1),IC50 [1],IC50 (VZV strain Ellen),IC50 (HSV-1),inhibition at 10 µg/mL (VZV strain Ellen)
O=C(Nc1ccc(NC(=S)Nc2ccc(Cl)c(C(F)(F)F)c2)cc1)c1ccco1 [Example 378],0.033 µg/mL,>10 µg/mL,31%,>10 µg/mL,,,,
O=C(Nc1ccc(NC(=S)Nc2ccc(NC(=O)c3ccco3)cc2)cc1Cl)OCCN1CCCCC1 [Example 439],0.5 µg/mL,>10 µg/mL,46%,9 µg/mL,,,,
"O=C(Nc1ccc(NC(=S)Nc2cccc(Cl)c2)cc1)c1ccco1 [Example 993, Furan-2-carboxylic acid {4-[3-(3-chloro-phenyl)-thioureido]-phenyl}-amide]",,,,,0.013 µg/mL,> 10 µg/mL,> 10 µg/mL,
COc1c(Cl)cc(NC(=S)Nc2ccc(NC(=O)c3csnn3)cc2)cc1Cl [Example 201],0.023 µg/mL,8 µg/mL,78%,>10 µg/mL,,,,
"O=C(Nc1ccc(NC(=S)Nc2ccc(Cl)c(C(F)(F)F)c2)cc1)c1csc(-c2ccccc2)n1 [Example 1141, 2-Phenyl-thiazole-4-carboxylic acid {4-[3-(4-chloro-3-trifluoromethyl-phenyl)-thioureido]-phenyl}-amide]",,,,,1.9 µg/mL,> 10 µg/mL,> 10 µg/mL,
CN(C)c1ccc(Cl)cc1NC(=S)Nc1ccc(NC(=O)c2csnn2)cc1 [Example 500],0.021 µg/mL,>10 µg/mL,48%,>10 µg/mL,,,,
"COc1ccc(NC(=S)Nc2ccc(NC(=O)c3csnn3)cc2)cc1Cl [Example 888, [1,2,3]Thiadiazole-4-carboxylic acid {4-[3-(3-chloro-4-methoxy-phenyl)-thioureido]-phenyl}-amide]",,,,,0.06 µg/mL,> 10 µg/mL,6 µg/mL,31%
COc1cc(OC)c(NC(=S)Nc2ccc(NC(=O)c3ccc(Br)o3)cc2)cc1Cl [Example 168],2.5 µg/mL,>10 µg/mL,,3 µg/mL,,,,
CC(CCc1ccccc1)NC(=S)Nc1ccc(NC(=O)c2csnn2)cc1 (centres unmarked) [Example 646],0.03 µg/mL,2.5 µg/mL,,>10 µg/mL,,,,
"CC(=O)Nc1ccc(NC(=S)Nc2cc(Cl)c(Cl)c(Cl)c2)cc1 [Example 986, N-{4-[3-(3,4,5-Trichloro-phenyl)-thioureido]-phenyl}-acetamide]",,,,,0.031 µg/mL,,> 10 µg/mL,5%
"O=C(Nc1ccc(NC(=S)Nc2cc(Cl)c(Cl)c(Cl)c2)cc1)c1csnn1 [Example 989, [1,2,3]Thiadiazole-4-carboxylic acid {4-[3-(3,4,5-trichloro-phenyl)-thioureido]-phenyl}-amide]",,,,,0.016 µg/mL,> 10 µg/mL,> 10 µg/mL,21%
"O=C(Nc1ccc(NC(=S)Nc2ccc(OC(F)(F)F)c(Br)c2)cc1)c1ccco1 [Example 919, Furan-2-carboxylic acid {4-[3-(3-bromo-4-trifluoromethoxy-phenyl)-thioureido]-phenyl}-amide]",,,,,0.05 µg/mL,> 10 µg/mL,> 10 µg/mL,
CCN(CC)CC(=O)Nc1ccc(NC(=S)Nc2ccc(NC(=O)c3ccco3)cc2)cc1Cl [Example 413],0.081 µg/mL,5 µg/mL,103%,5 µg/mL,,,,
CCCCN(C)c1cc(NC(=S)Nc2ccc(NC(=O)c3csnn3)cc2)cc(C(F)(F)F)c1 [Example 597],0.008 µg/mL,>10 µg/mL,,>10 µg/mL,,,,
O=C(Nc1ccc(NC(=S)Nc2cc(N3CCC(O)C3)cc(C(F)(F)F)c2)cc1)c1csnn1 (centres unmarked) [Example 595],0.022 µg/mL,3 µg/mL,,>10 µg/mL,,,,
CN(C)CCSCC(=O)Nc1ccc(NC(=S)Nc2ccc(NC(=O)c3ccco3)cc2)cc1Cl [Example 396],0.7 µg/mL,>10 µg/mL,26%,>10 µg/mL,,,,
NNC(=O)c1cccc(NC(=S)Nc2ccc(NC(=O)c3ccco3)cc2)c1 [Example 447],>10 µg/mL,>10 µg/mL,,>10 µg/mL,,,,
